In ChEMBL document CHEMBL3639188, “Tyrosine kinase inhibitors” (2014):

Target: High affinity nerve growth factor receptor (Homo sapiens, UniProt P04629)
Test: In Vitro Kinase Activity Assay: Compounds to be tested were dissolved in 100% DMSO in a range of concentrations from 10^-8 to 10^-3 M including negative control (DMSO), then diluted with Kinase Buffer (50 mM HEPES, pH 7.5, 1 mM EGTA, 10 mM MgCl2, 0.01% Tween-20, and 2 mM DTT, added fresh) to 4x the final concentration. The final curve included 11 concentrations (10^-11 to 10^-5 M) plus negative …

Sequence of High affinity nerve growth factor receptor (P04629 whole entry): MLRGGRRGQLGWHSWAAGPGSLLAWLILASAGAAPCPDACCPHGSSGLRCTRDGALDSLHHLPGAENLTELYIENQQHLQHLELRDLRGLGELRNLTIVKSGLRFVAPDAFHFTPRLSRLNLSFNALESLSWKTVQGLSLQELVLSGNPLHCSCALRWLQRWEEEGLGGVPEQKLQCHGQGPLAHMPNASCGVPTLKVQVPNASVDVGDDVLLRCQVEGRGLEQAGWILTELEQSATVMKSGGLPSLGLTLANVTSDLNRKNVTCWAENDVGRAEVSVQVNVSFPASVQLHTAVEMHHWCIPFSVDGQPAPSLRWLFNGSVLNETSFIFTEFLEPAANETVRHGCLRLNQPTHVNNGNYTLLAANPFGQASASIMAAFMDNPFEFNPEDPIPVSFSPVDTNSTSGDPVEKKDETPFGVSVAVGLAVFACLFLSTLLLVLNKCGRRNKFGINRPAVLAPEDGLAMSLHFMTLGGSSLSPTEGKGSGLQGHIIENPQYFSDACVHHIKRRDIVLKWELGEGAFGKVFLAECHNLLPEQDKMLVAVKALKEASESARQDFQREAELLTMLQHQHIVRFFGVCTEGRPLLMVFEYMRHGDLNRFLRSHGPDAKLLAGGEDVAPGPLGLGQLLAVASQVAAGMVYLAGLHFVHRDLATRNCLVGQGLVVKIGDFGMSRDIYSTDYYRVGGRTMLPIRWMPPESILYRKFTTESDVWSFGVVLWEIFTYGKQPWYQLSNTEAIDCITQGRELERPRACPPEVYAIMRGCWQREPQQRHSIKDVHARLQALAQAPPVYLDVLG

Work on `CC(Cc1cc(F)ccc1F)Nc1cc[nH]c(=O)c1-c1nc2cc3c(cc2[nH]1)C(=O)N(C1CCN(C)CC1)C3=O` (stereo unspecified) yielded an IC50 of 6.35 nM.
